According to patent US10519211B2, “Compounds as peptidic GLP1/glucagon/GIP receptor agonists” (SANOFI, priority 2016, dated 2019):
Numbered stars: 1 amine (or outer) side, 2 acyl side, 3 side chain; on linkers, the order of the positions; unused ones are H or OH. Square brackets hold non-standard residues; d marks the D form. Side chains are listed from the residue outwards. Peptide text beside a SMILES is read from it. * marks the point of attachment. γGlu = O=C(O)[C@H](CCC(=O)[*:2])N[*:1]; Palmitoyl = CCCCCCCCCCCCCCCC(=O)*; Aib = CC(C)(N)C(=O)O

How the values were obtained:
[1] = Solubility assessment (UPLC-UV); type: physicochemical; conditions: acetate buffer pH 4.5, 2.7 mg/ml m-cresol (buffer system A), target 10 mg/ml
Summary of the method: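 Peptides at 10 mg/mL (purity-corrected, by UPLC/MS) in 100 mM acetate buffer pH 4.5 with 2.7 mg/ml m-Cresol, gently agitated 1 hour, then centrifuged 15 min at 2500 RCF. Supernatant, diluted 1:10, quantified by UPLC-UV peak area against a reference peptide standard curve, extinction-coefficient corrected.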

[2] = tested on: female diet-induced obese (DIO) C57BL/6NHsd mice; assay: Acute and chronic effects after subcutaneous treatment in female diet-induced obese (DIO) mice; type: in vivo, mouse; conditions: for Body mass compared to the DIO-Vehicle group / Whole body fat mass compared to the DIO-Vehicle group / Plasma insulin concentrations compared to DIO vehicle / Plasma total cholesterol concentrations compared to DIO vehicle / Liver mass on day 28 compared to DIO animals treated with vehicle / Plasma alanine aminotransferase concentration on day 28 compared to DIO vehicle: 30 μg/kg s.c. twice daily; for Body mass compared to the DIO-Vehicle group / Whole body fat mass compared to the DIO-Vehicle group / Body mass change: 28 days; for Body mass compared to the DIO-Vehicle group / Whole body fat mass compared to the DIO-Vehicle group / Plasma insulin concentrations compared to DIO vehicle / Plasma total cholesterol concentrations compared to DIO vehicle / Liver mass on day 28 compared to DIO animals treated with vehicle / Plasma alanine aminotransferase concentration on day 28 compared to DIO vehicle / 24 hour blood glucose profile following first treatment: in words; for Plasma insulin concentrations compared to DIO vehicle / Plasma total cholesterol concentrations compared to DIO vehicle: day 28; for 24 hour blood glucose profile following first treatment: 30 μg/kg s.c., day 1, fed DIO mice, vs DIO control; for Body mass change / Whole body fat mass change / Terminal liver mass (g) / Terminal plasma alanine aminotransferase (U/L) / Terminal plasma insulin (U/L) / Terminal plasma total cholesterol (mmol/L): twice-daily 30 μg/kg s.c.; for Body mass change: mean ± SEM; for Whole body fat mass change: QNMR predose vs day 26, mean ± SEM; for Terminal liver mass (g) / Terminal plasma alanine aminotransferase (U/L) / Terminal plasma insulin (U/L) / Terminal plasma total cholesterol (mmol/L): day 28, mean ± SEM
Experimental: Female C57BL/6NHsd mice were ordered group housed from Envigo RMS Inc., shipped group housed and remained group housed with shipped cage mates in shoebox caging with wood chip bedding until day 38 of the predose phase. At the study start mice were between 25-26 weeks old.
Mice were housed under vivarium conditions that included a 12 h light/dark cycle (light phase 04:00 AM-4:00 PM), room temperatures between 23-26° C. and a relative humidity between 30-70%. All animals had free access to water and a high fat diet (TD97366) for 16 weeks prior to pharmacological intervention (dosing phase). Feed was replaced with fresh feed weekly until and for the last time on day 38 of the predose phase. During the subsequent dosing phase, approximately 50% of the remaining feed were removed, replaced with fresh feed, and pellets were mixed evenly once per week.
On predose day 38, obese DIO mice were assigned to treatment groups (n=8) to match mean body masses between all DIO groups. An age-matched group with ad libitum access to a rodent maintenance diet (Teklad Global Diets Rodent 2014, pelleted) was included in the study as a lean control group. In the predosing phase from day 32 through 38, all study animals were treated with vehicle (Phosphate Buffered Saline, PBS, Gibco, without CaCl2 and MgCl2) once daily (s.c. approximately 0.2 mL/mouse).
On day 37 of the predose phase, the test article was diluted with PBS to a concentration of 100 μg/mL and aliquots of this stock solution were stored at approximately ≤−60° C. Stock aliquots were thawed for weekly use and thereafter stored in a refrigerator at approximately 4° C. The injected test article solution was prepared fresh once on each dosing day by diluting stock solution with PBS to achieve the desired concentration.
Mice were treated twice daily with a s.c. injection of PBS-vehicle or the test article for 28 days. The morning dosing was initiated and completed between 06:00 and 07:30 AM and the afternoon dosing between 2:00 and 3:30 PM. On day 28 of the dosing phase only the morning dose was administered. The applied volume was 5 ml/kg and the dose was adjusted to the most recent body mass recording of each individual.
Animals had unlimited access to water and feed during the experiment. On day 1 of the dosing phase approximately 5 μL of blood were collected via tail clips at hour 0, prior to the first s.c. dose of PBS-vehicle or test-article as well as 1, 2, 3, 4, 6, and 24 hours post-dose. Animals received the second s.c. dose of PBS-vehicle or test-article 8 hours after the first dose. The 24 hour blood collection of the blood glucose profile was performed prior to dosing on day 2. Glucose measurements were performed in whole blood and in duplicate or triplicate using Aviva glucometers.
Body mass was measured daily approximately between 06:00-07:30 AM from day 32 through 38 of the predosing phase and throughout the 28 days of the dosing phase. During the dosing phase mice were treated twice daily with either a s.c. injection of PBS-vehicle or test article.
To determine whole body fat mass Quantitative Nuclear Magnetic Resonance (QNMR) measurements were performed on predosing day 37 and on day 26 of the dosing phase. During the dosing phase mice were treated twice daily with either a s.c. injection of PBS-vehicle or test article.
On day 28 blood was collected prior to any other inlife activities for determination of plasma insulin concentrations. Then the morning dose was administered and necropsy was performed 4 hours post-dose. For this purpose animals were anesthetized with isoflurane and blood was collected by orbital bleeding.
On day 28 and 4 hours after the morning dose, blood was collected from mice under isoflurane anesthesia as described above. Then mice were killed and livers were collected and weighed.
Data are depicted as means±SEM. […] A One-Way ANOVA and Tukey Test were used for pairwise multiple comparisons of all groups (n=8/group, deviations from group size are indicated). […]

SMILES | solubility at 1 h [1] | Body mass compared to the DIO-Vehicle group [2] | Whole body fat mass compared to the DIO-Vehicle group [2] | Plasma insulin concentrations compared to DIO vehicle [2] | Plasma total cholesterol concentrations compared to DIO vehicle [2] | Liver mass on day 28 compared to DIO animals treated with vehicle [2] | Plasma alanine aminotransferase concentration on day 28 compared to DIO vehicle [2] | 24 hour blood glucose profile following first treatment [2] | Body mass change ([2]; Table 9) | Whole body fat mass change ([2]; Table 9) | Terminal liver mass (g) ([2]; Table 9) | Terminal plasma alanine aminotransferase (U/L) ([2]; Table 9) | Terminal plasma insulin (U/L) ([2]; Table 9) | Terminal plasma total cholesterol (mmol/L) ([2]; Table 9) | Body mass change ([2]; Table 11) | Whole body fat mass change ([2]; Table 11) | Terminal liver mass (g) ([2]; Table 11) | Terminal plasma alanine aminotransferase (U/L) ([2]; Table 11) | Terminal plasma insulin (U/L) ([2]; Table 11) | Terminal plasma total cholesterol (mmol/L) ([2]; Table 11)
CCCCCCCCCCCCCCCC(=O)N[C@@H](CCC(=O)N[C@@H](CCC(=O)NCCCC[C@H](NC(=O)[C@H](CC(C)C)NC(=O)[C@H](CCCCN)NC(=O)[C@H](CO)NC(=O)[C@H](CC(C)C)NC(=O)[C@H](CC(=O)O)NC(=O)[C@H](CO)NC(=O)[C@@H](NC(=O)[C@H](Cc1ccccc1)NC(=O)[C@@H](NC(=O)CNC(=O)[C@H](CCC(N)=O)NC(=O)C(C)(C)NC(=O)[C@@H](N)Cc1c[nH]cn1)[C@@H](C)O)[C@@H](C)O)C(=O)N[C@@H](CCC(=O)O)C(=O)N[C@@H](CCCCN)C(=O)N[C@@H](CCC(N)=O)C(=O)N[C@@H](CCCNC(=N)N)C(=O)N[C@@H](CCC(N)=O)C(=O)NC(C)(C)C(=O)N[C@@H](CCC(=O)O)C(=O)N[C@@H](Cc1ccccc1)C(=O)N[C@H](C(=O)N[C@@H](CCC(=O)O)C(=O)N[C@@H](Cc1c[nH]c2ccccc12)C(=O)N[C@@H](CC(C)C)C(=O)N[C@@H](CCCCN)C(=O)N[C@@H](C)C(=O)NCC(=O)NCC(=O)N1CCC[C@H]1C(=O)N1CCC[C@H]1C(=O)N[C@@H](CO)C(=O)NC(C)(C)C(=O)N[C@@H](CCCCN)C(=O)N1CCC[C@H]1C(=O)N1CCC[C@H]1C(=O)N1CCC[C@H]1C(=O)N[C@@H](CCCCN)C(N)=O)[C@@H](C)CC)C(=O)O)C(=O)O [SEQ ID NO: 6, H-Aib-Q-G-T-F-T-S-D-L-S-K-L-K[gGlu-gGlu-Palm]-E-K-Q-R-Q-Aib-E-F-I-E-W-L-K-A-G-G-P-P-S-Aib-K-P-P-P-K-NH2] | > 9600 µg/mL | statistically significant decrease in body mass | statistically significantly reduction in whole body fat mass | statistically significant reduction in plasma insulin concentrations | statistically significant reduction in plasma total cholesterol concentrations | statistically significantly lower liver mass | statistically significantly lower plasma alanine aminotransferase concentration | decrease in blood glucose concentrations below concentrations observed in DIO control mice | -5.36 ± 0.36 g | -4.33 ± 0.42 g | +1.16 ± 0.04 g | +62.25 ± 9.79 U/L | +31.07 ± 5.26 U/L | +5.11 ± 0.12 mmol/L |  |  |  |  |  | 
CCCCCCCCCCCCCCCC(=O)N[C@@H](CCC(=O)N[C@@H](CCC(=O)NCCCC[C@H](NC(=O)[C@H](CC(C)C)NC(=O)[C@H](CCCCN)NC(=O)[C@H](CO)NC(=O)[C@H](CC(C)C)NC(=O)[C@H](CC(=O)O)NC(=O)[C@H](CO)NC(=O)[C@@H](NC(=O)[C@H](Cc1ccccc1)NC(=O)[C@@H](NC(=O)CNC(=O)[C@H](CCC(N)=O)NC(=O)C(C)(C)NC(=O)[C@@H](N)Cc1c[nH]cn1)[C@@H](C)O)[C@@H](C)O)C(=O)N[C@@H](CCC(=O)O)C(=O)N[C@@H](CCC(=O)O)C(=O)N[C@@H](CCC(N)=O)C(=O)N[C@@H](CCCNC(=N)N)C(=O)N[C@@H](CCC(N)=O)C(=O)NC(C)(C)C(=O)N[C@@H](CCC(=O)O)C(=O)N[C@@H](Cc1ccccc1)C(=O)N[C@H](C(=O)N[C@@H](CCC(=O)O)C(=O)N[C@@H](Cc1c[nH]c2ccccc12)C(=O)N[C@@H](CC(C)C)C(=O)N[C@@H](CCCCN)C(=O)N[C@@H](C)C(=O)NCC(=O)NCC(=O)N1CCC[C@H]1C(=O)N1CCC[C@H]1C(=O)N[C@@H](CO)C(=O)NC(C)(C)C(=O)N[C@@H](CCCCN)C(=O)N1CCC[C@H]1C(=O)N1CCC[C@H]1C(=O)N1CCC[C@H]1C(=O)N[C@@H](CCCCN)C(N)=O)[C@@H](C)CC)C(=O)O)C(=O)O [SEQ ID NO: 9, H-Aib-Q-G-T-F-T-S-D-L-S-K-L-K[gGlu-gGlu-Palm]-E-E-Q-R-Q-Aib-E-F-I-E-W-L-K-A-G-G-P-P-S-Aib-K-P-P-P-K-NH2] |  | statistically significant decrease in body mass | statistically significantly reduction in whole body fat mass | statistically significant reduction in plasma insulin concentrations | statistically significant reduction in plasma total cholesterol concentrations | statistically significantly lower liver mass | statistically significantly lower plasma alanine aminotransferase concentration | decrease in blood glucose concentrations below concentrations observed in DIO control mice |  |  |  |  |  |  | -10.03 ± 2.33 g | -5.29 ± 2.32 g | +1.11 ± 0.06 g | +57.13 ± 7.33 U/L | +38.95 ± 7.30 U/L | +3.97 ± 0.12 mmol/L
CCCCCCCCCCCCCCCC(=O)N[C@@H](CCC(=O)N[C@@H](CCC(=O)NCCCC[C@H](NC(=O)[C@H](CC(C)C)NC(=O)[C@H](CCCCN)NC(=O)[C@H](CO)NC(=O)[C@H](CC(C)C)NC(=O)[C@H](CC(=O)O)NC(=O)[C@H](CO)NC(=O)[C@@H](NC(=O)[C@H](Cc1ccccc1)NC(=O)[C@@H](NC(=O)CNC(=O)[C@H](CCC(N)=O)NC(=O)C(C)(C)NC(=O)[C@@H](N)Cc1c[nH]cn1)[C@@H](C)O)[C@@H](C)O)C(=O)N[C@@H](CCC(=O)O)C(=O)N[C@@H](CCCCN)C(=O)N[C@@H](CCC(N)=O)C(=O)N[C@@H](CCCNC(=N)N)C(=O)N[C@@H](CCC(N)=O)C(=O)NC(C)(C)C(=O)N[C@@H](CCC(=O)O)C(=O)N[C@@H](Cc1ccccc1)C(=O)N[C@H](C(=O)N[C@@H](CCC(=O)O)C(=O)N[C@@H](Cc1c[nH]c2ccccc12)C(=O)N[C@@H](CC(C)C)C(=O)N[C@@H](CCCCN)C(=O)N[C@@H](C)C(=O)N[C@H](C)C(=O)NCC(=O)N[C@@H](Cc1c[nH]cn1)C(=O)N1CCC[C@H]1C(=O)N[C@@H](CO)C(=O)NC(C)(C)C(=O)N[C@@H](CCCCN)C(=O)N1CCC[C@H]1C(=O)N1CCC[C@H]1C(=O)N1CCC[C@H]1C(=O)N[C@@H](CCCCN)C(N)=O)[C@@H](C)CC)C(=O)O)C(=O)O [SEQ ID NO: 13, H-Aib-Q-G-T-F-T-S-D-L-S-K-L-K[gGlu-gGlu-Palm]-E-K-Q-R-Q-Aib-E-F-I-E-W-L-K-A-dAla-G-H-P-S-Aib-K-P-P-P-K-NH2] (H-H[Aib]QGTFTSDLSKLK([γGlu-γGlu-Palmitoyl])EKQRQ[Aib]EFIEWLKA[dA]GHPS[Aib]KPPPK-NH2) | > 9300 µg/mL |  |  |  |  |  |  |  |  |  |  |  |  |  |  |  |  |  |  | 
